# Source: patent US20070128217A1 (priority 2003, published 2007)
# Columns and labels:
# [1] = system: antibodies in sera from SARS patients (sera 1a, 1b, 2, 6, 37, 62, London, SARS-yellow, SARS-green); format: binding, human; parameters: Binding of serum 6 to linear peptides of protein X1 of SARS-CoV Urbani / Binding of serum 37 to linear peptides of protein X1 of SARS-CoV Urbani / Binding of serum 6 to looped/cyclic peptide (PEPSCAN-ELISA) / Binding of serum 37 to looped/cyclic peptide (PEPSCAN-ELISA) / Binding of serum 37 to looped/cyclic peptides of protein X1 of SARS-CoV Urbani / Binding of serum 6 to linear peptides of protein X2 / Binding of serum 37 to linear peptides of protein X2 / Binding of serum 37 to looped/cyclic peptides of protein X2 of SARS-CoV Urbani / Binding of serum 6 to linear peptides of protein M of SARS-CoV Urbani / Binding of serum 37 to linear peptides of protein M of SARS-CoV Urbani / Binding of serum 6 to looped/cyclic peptides of protein M of SARS-CoV Urbani / Binding of serum 37 to looped/cyclic peptides of protein M of SARS-CoV Urbani / Binding of serum 6 to linear peptides of protein X3 of SARS-CoV Urbani / Binding of serum 37 to linear peptides of protein X3 of SARS-CoV Urbani / Binding of serum 37 to looped/cyclic peptides of protein X3 of SARS-CoV Urbani / Binding of serum 6 to linear peptides of protein X4 of SARS-CoV Urbani / Binding of serum 37 to linear peptides of protein X4 of SARS-CoV Urbani / Binding of serum 37 to looped/cyclic peptides of protein X4 of SARS-CoV Urbani / Binding of serum 6 to linear peptides of protein X5 of SARS-CoV Urbani / Binding of serum 37 to linear peptides of protein X5 of SARS-CoV Urbani / Binding of serum 37 to looped/cyclic peptides of protein X5 of SARS-CoV Urbani / Binding of serum 6 to linear peptides of protein N of SARS-CoV Urbani / Binding of serum 37 to linear peptides of protein N of SARS-CoV Urbani / Binding of serum 6 to linear peptide (PEPSCAN-ELISA) / Binding of serum 1a to looped/cyclic peptides of protein N of SARS-CoV Urbani / Binding of serum 1b to looped/cyclic peptides of protein N of SARS-CoV Urbani / Binding of serum 2 to looped/cyclic peptides of protein N of SARS-CoV Urbani / Binding of serum 6 to looped/cyclic peptides of protein N of SARS-CoV Urbani / Binding of serum 37 to looped/cyclic peptides of protein N of SARS-CoV Urbani / Binding of serum 62 to looped/cyclic peptides of protein N of SARS-CoV Urbani / Binding of serum London to looped/cyclic peptides of protein N of SARS-CoV Urbani / Binding of serum SARS-green to looped/cyclic peptides of protein N of SARS-CoV Urbani: unit not given here
# [2] = system: control sera (pooled serum of ten healthy LUMC hospital workers; commercial negative donor pooled serum from the Dutch bloodbank); format: binding, human; parameters: Binding of Control serum LUMC to linear peptides / Binding of Control serum Blood-bank to linear peptides / Binding of Control serum LUMC to looped peptides / Binding of Control Serum Blood-Bank to Looped peptides / Binding of Control serum LUMC to linear peptides of the protein M of SARS-CoV Urbani / Binding of Control serum Blood-bank to linear peptides of the protein M of SARS-CoV Urbani / Binding of Control serum LUMC to looped peptides of the protein M of SARS-CoV Urbani / Binding of Control Serum Blood-Bank to Looped peptides of the protein M of SARS-CoV Urbani: unit not given here
# [3] = system: rabbit serum obtained by immunizing a rabbit with the SARS-CoV strain Frankfurt 1; format: binding; parameters: Binding of a rabbit serum to linear peptides / Binding of a rabbit serum to looped peptides / Rabbit serum linear peptides / Rabbit serum looped peptides / Binding of a rabbit serum to linear peptides of protein N of SARS-CoV Urbani (Rabbit serum linear peptides) / Binding of a rabbit serum to looped/cyclic peptides of protein N of SARS-CoV Urbani (Rabbit serum looped peptides): unit not given here
# [4] = system: recombinant human anti-SARS-CoV antibody 03-018; format: binding; parameters: Binding of antibody 03-018 to linear peptides of the N protein of SARS-CoV Urbani / Binding of antibody 03-018 to looped/cyclic peptides of the N protein of SARS-CoV Urbani: unit not given here
Sequence,Binding of serum 1a to linear peptides of protein N of SARS-CoV Urbani [1],Binding of serum 1a to looped/cyclic peptides of protein N of SARS-CoV Urbani [1],Binding of serum 1b to linear peptides of protein N of SARS-CoV Urbani [1],Binding of serum 1b to looped/cyclic peptides of protein N of SARS-CoV Urbani [1],Binding of serum 2 to linear peptides of protein N of SARS-CoV Urbani [1],Binding of serum 2 to looped/cyclic peptides of protein N of SARS-CoV Urbani [1],Binding of serum 6 to linear peptides of protein N of SARS-CoV Urbani [1],Binding of serum 6 to looped/cyclic peptides of protein N of SARS-CoV Urbani [1],Binding of serum 37 to linear peptides of protein N of SARS-CoV Urbani [1],Binding of serum 37 to looped/cyclic peptides of protein N of SARS-CoV Urbani [1],Binding of serum 62 to linear peptides of protein N of SARS-CoV Urbani [1],Binding of serum 62 to looped/cyclic peptides of protein N of SARS-CoV Urbani [1],Binding of serum London to linear peptides of protein N of SARS-CoV Urbani [1],Binding of serum London to looped/cyclic peptides of protein N of SARS-CoV Urbani [1],Binding of serum SARS-green to linear peptides of protein N of SARS-CoV Urbani [1],Binding of serum SARS-green to looped/cyclic peptides of protein N of SARS-CoV Urbani [1],Binding of serum SARS-yellow to linear peptides of protein N of SARS-CoV Urbani [1],Binding of serum SARS-yellow to looped/cyclic peptides of protein N of SARS-CoV Urbani [1],Binding of a rabbit serum to linear peptides of protein N of SARS-CoV Urbani (Rabbit serum linear peptides) [3],Binding of a rabbit serum to looped/cyclic peptides of protein N of SARS-CoV Urbani (Rabbit serum looped peptides) [3],other results
RPKQRRPQGLPNNTA,0.3,0.3,0.1,0.1,0.3,0.3,0.2,0.3,0.7,0.5,0.6,0.5,0.5,0.4,0.5,0.2,0.7,0.3,0.4,0.4,Binding of Control Serum Blood-Bank to Looped peptides [2]: 0.4; Binding of Control serum Blood-bank to linear peptides [2]: 0.8; Binding of Control serum LUMC to linear peptides [2]: 0.7; Binding of Control serum LUMC to looped peptides [2]: 0.5; Binding of antibody 03-018 to linear peptides of the N protein of SARS-CoV Urbani [4]: 0.1; Binding of antibody 03-018 to looped/cyclic peptides of the N protein of SARS-CoV Urbani [4]: 0.2
RQLQNSMSGASADST,0.2,0.2,0.2,0.1,0.2,0.3,0.2,0.1,0.7,0.4,0.6,0.2,0.6,0.2,0.3,0.1,0.5,0.2,0.5,0.3,Control Serum Blood-Bank Looped peptides [2]: 0.4; Control serum Blood-bank linear peptides [2]: 0.7; Control serum LUMC linear peptides [2]: 0.6; Control serum LUMC looped peptides [2]: 0.2; Binding of antibody 03-018 to linear peptides of the N protein of SARS-CoV Urbani [4]: 0.1; Binding of antibody 03-018 to looped/cyclic peptides of the N protein of SARS-CoV Urbani [4]: 0.2
RRPQGLPNNTASWFT,0.2,0.4,0.1,0.3,0.1,0.5,0.1,0.3,0.6,0.6,0.6,0.5,0.4,0.4,0.2,0.6,0.6,0.5,0.1,0.4,Binding of Control Serum Blood-Bank to Looped peptides [2]: 0.7; Binding of Control serum Blood-bank to linear peptides [2]: 0.5; Binding of Control serum LUMC to linear peptides [2]: 0.7; Binding of Control serum LUMC to looped peptides [2]: 0.6; Binding of antibody 03-018 to linear peptides of the N protein of SARS-CoV Urbani [4]: 0.1; Binding of antibody 03-018 to looped/cyclic peptides of the N protein of SARS-CoV Urbani [4]: 0.2
